Where only a bound is given, the exact number is not on record here.

The first assay deals with T1, rat NaPi-2b (Rattus norvegicus, UniProt Q9JJ09).
T1 construct: expressed in transfected cells; host or cells: Xenopus oocytes injected with cRNA
T1 sequence (Q9JJ09 1-695): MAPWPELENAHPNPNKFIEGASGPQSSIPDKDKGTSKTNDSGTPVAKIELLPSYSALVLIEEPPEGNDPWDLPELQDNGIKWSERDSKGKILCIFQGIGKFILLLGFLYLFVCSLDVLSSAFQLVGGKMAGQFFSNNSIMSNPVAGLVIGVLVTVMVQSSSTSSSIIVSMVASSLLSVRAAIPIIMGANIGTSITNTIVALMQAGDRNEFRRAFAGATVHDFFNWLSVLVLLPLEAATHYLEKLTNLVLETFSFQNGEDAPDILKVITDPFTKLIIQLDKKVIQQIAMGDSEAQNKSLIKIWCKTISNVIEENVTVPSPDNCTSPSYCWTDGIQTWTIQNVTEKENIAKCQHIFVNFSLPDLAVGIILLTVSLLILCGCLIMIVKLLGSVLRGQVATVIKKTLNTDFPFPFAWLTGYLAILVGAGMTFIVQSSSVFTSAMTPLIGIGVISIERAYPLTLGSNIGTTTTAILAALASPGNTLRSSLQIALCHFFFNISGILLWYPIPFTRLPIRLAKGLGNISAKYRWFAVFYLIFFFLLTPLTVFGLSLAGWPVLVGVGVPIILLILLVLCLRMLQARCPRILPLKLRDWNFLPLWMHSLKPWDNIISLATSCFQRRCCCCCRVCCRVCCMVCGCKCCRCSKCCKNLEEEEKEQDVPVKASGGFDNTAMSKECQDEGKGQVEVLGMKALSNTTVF
The assay can be described thus: Sodium-dependent phosphate uptake of Xenopus oocytes which expressed NaPi-2b (32P). The assay is classed as cell-based. The following applies: Xenopus oocytes expressing rat NaPi-2b, 32P radioactive phosphorus; read-out: IC50 (phosphate uptake inhibitory activity). In short, it runs like this:
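Read-out is 32P phosphate uptake into Xenopus oocytes expressing rat intestinal NaPi-2b (cRNA injection, 2-day culture). Inhibition at 300 μM and 100 μM was derived from a single inhibition curve and given as percent.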
As usually defined, the IC50 is the point on the concentration scale where inhibition reaches its midpoint. `Cc1cccc(/C=N/NC(=O)c2cscc2NC(=O)c2cccc(CN(CC(C)O)CC(C)O)c2)c1` (centres unmarked) [Compound 975, 3-{[Bis-(2-hydroxy-propyl)-amino]-methyl}-N-[4-(3-methyl-benzylidene-hydrazinocarbonyl)-thiophen-3-yl]-benzamide]: the IC50 turned out to be 17.4 µM. On the same count and under the same terms, in the case of `CCN(CC)CCN(C)Cc1cccc(C(=O)Nc2ccc(N3CCCN(C)CC3)cc2C(=O)N/N=C/c2ccc(Cl)c(C(F)(F)F)c2)c1` [Compound 922, N-[2-(4-Chloro-3-trifluoromethyl-benzylidene-hydrazinocarbonyl)-4-(4-methyl-[1,4]diazepan-1-yl)-phenyl]-3-{[(2-diethylamino-ethyl)-methyl-amino]-methyl}-benzamide] it was 2.89 µM. Still for that read-out and setting: to `CN(CCO)Cc1ccc(C(=O)Nc2ccc(Cl)cc2C(=O)N/N=C/c2ccc(F)cc2)cc1` [Compound 413, N-[4-Chloro-2-(4-fluoro-benzylidene-hydrazinocarbonyl)-phenyl]-4-{[(2-hydroxy-ethyl)-methyl-amino]-methyl}-benzamide] belongs less than 3 µM.

In the case of `CCN(CC)CCOc1ccc(NC(=O)c2cccc(CN(CC(C)O)CC(C)O)c2)c(C(=O)NN=Cc2ccc(C)c(C)c2)c1` (centres unmarked) [Compound 943, 3-{[Bis-(2-hydroxy-propyl)-amino]-methyl}-N-[4-(2-diethylamino-ethoxy)-2-(3,4-dimethyl-benzylidene-hydrazinocarbonyl)-phenyl]-benzamide], the IC50 was 10.6 µM. In the case of `Cc1ccc(/C=N/n2c(-c3cccc(CSc4nc[nH]n4)c3)nc3sc4c(c3c2=O)CCCC4)cc1C` [Compound 646, 3-[(3,4-Dimethyl-benzylidene-)-amino]-2-[3-(1H-[1,2,4]triazol-3-ylsulfanylmethyl)-phenyl]-5,6,7,8-tetrahydro-3H-benzo[4,5]thieno[2,3-d]pyrimidin-4-one], the IC50 came to 1.77 µM. As to `CCOCCN(CCOCC)Cc1ccc(C(=O)Nc2ccc(Br)cc2C(=O)N/N=C/c2ccc(Cl)c(C(F)(F)F)c2)cc1` [Compound 738, 4-{[Bis-(2-ethoxy-ethyl)-amino]-methyl}-N-[4-bromo-2-(4-chloro-3-trifluoromethyl-benzylidene-hydrazinocarbonyl)-phenyl]-benzamide], the IC50 came to 7.55 µM.

`COc1ccc(C(=O)Nc2ccc(Br)cc2C(=O)N/N=C/c2cccn2C)cc1OC` [Compound 201, N-[4-Bromo-2-(1-methyl-1H-pyrrol-2-ylmethylene-hydrazinocarbonyl)-phenyl]-3,4-dimethoxy-benzamide]: the IC50 was determined as 11.1 µM.

With `CCN(CC)CCNCc1ccc(C(=O)Nc2ccc(Br)cc2C(=O)N/N=C/c2ccc(C)c(C)c2)cc1` [Compound 292, N-[4-Bromo-2-(3,4-dimethyl-benzylidene-hydrazinocarbonyl)-phenyl]-4-[(2-diethylamino-ethylamino)-methyl]-benzamide], the IC50 was determined as 3.5 µM.

Staying with this assay, now noted: phosphate uptake, oocytes expressing rat NaPi-2b; 300 μM, determined from inhibition curve.
In general, inhibition refers to the percentage by which the read-out fell short of the control. Higher therefore signals strong suppression. On to `CCN(CC)CCNCc1cccc(C(=O)Nc2c(C)csc2C(=O)N/N=C/c2cccc(F)c2)c1` [Compound 538, 3-[(2-Diethylamino-ethylamino)-methyl]-N-[2-(3-fluoro-benzylidene-hydrazinocarbonyl)-4-methyl-thiophen-3-yl]-benzamide], for which the inhibition at 300 µM was 30.3%. Still for that read-out and setting: in the case of `Cc1ccc(/C=N/NC(=O)c2scc(C)c2NC(=O)c2cccc(CN3CCN(CCO)CC3)c2)cc1C` [Compound 532, N-[2-(3,4-Dimethyl-benzylidene-hydrazinocarbonyl)-4-methyl-thiophen-3-yl]-3-[4-(2-hydroxy-ethyl)-piperazin-1-ylmethyl]-benzamide] it was 76%; in that of `Cc1csc(NC(=O)c2cccc(CSCCS(=O)(=O)O)c2)c1C(=O)N/N=C/c1ccc(F)cc1` [Compound 783, 2-{3-[3-(4-Fluoro-benzylidene-hydrazinocarbonyl)-4-methyl-thiophen-2-ylcarbamoyl]-benzylsulfanyl}-ethanesulfonic acid], 88.8%.
